# Data reported in US9951058B2, “Compound, pharmaceutically acceptable salt or optical isomer thereof, method for preparing the same, and pharmaceutical composition for prevention or treatment of viral diseases containing same as active ingredient” (Korea Research Institute of Chemical Technology, priority 2012, dated 2018).
# What was measured:
# HRV 71 = assay: Cytopathic effect (CPE) inhibition assay; assay type: cell-based, human rhinovirus; conditions: Human rhinovirus sp., 72 h; host cell HeLa, 3 days, MEM/2% FBS, MTT assay; read-out: EC50 HRV 71
# poliovirus 3 (PV3) = assay: microbe, parasite or virus in culture; assay type: cell-based; conditions: Enterovirus C, 72 h, read-out: EC50 PV3
# [1] = tested on: coxsackievirus B3 (Cox B3); assay: Multicycle cytopathic effect (CPE) reduction assay; assay type: cell-based; conditions: Enterovirus B, B3, 72 h, read-out: EC50 CoxB3
# HRV 21 = assay: Cytopathic effect (CPE) inhibition assay; assay type: cell-based, human rhinovirus; conditions: Human rhinovirus sp., 72 h; host cell HeLa, 3 days, MEM/2% FBS, MTT assay; read-out: EC50 HRV 21
# [2] = tested on: coxsackievirus B1 (Cox B1); assay: Multicycle cytopathic effect (CPE) reduction assay; assay type: cell-based; conditions: Enterovirus B, B1, 72 h, read-out: EC50 CoxB1
# [3] = Cytotoxicity (CC50) in multicycle CPE reduction assay, MTS; conditions: human
# HRV 14 = assay: Cytopathic effect (CPE) inhibition assay; assay type: cell-based, human rhinovirus; conditions: Human rhinovirus sp., HeLa, 72 h, host cell HeLa, 3 days, MEM/2% FBS, MTT assay; read-out: EC50 HRV 14
# in vitro = conditions: human
SMILES,EC50 (HRV 71),EC50 (poliovirus 3 (PV3)),EC50 [1],EC50 (HRV 21),EC50 [2],CC50 at 3 days [3],EC50 (HRV 14),CC50 (in vitro)
"CCCNC(=O)OC12C(=O)c3ccccc3C1(O)Oc1cc(C(C)C)ccc12 (centres unmarked) [Example 18, 4b-hydroxy-7-isopropyl-10-oxo-4b, 10-dihydro-9bH-indeno[1,2-b]benzofuran-9b-yl propyl carbamate]",> 10 µg/mL,> 10 µg/mL,< 10 µg/mL,> 10 µg/mL,< 10 µg/mL,> 10 µg/mL,> 10 µg/mL,> 10 µg/mL
"CC(=O)C(=O)NC12C(=O)c3cccc([N+](=O)[O-])c3C1(O)Oc1cc(C(C)C)ccc12 (centres unmarked) [Example 19, N-(4b-hydroxy-7-isopropyl-4-nitro-10-oxo-4b, 10-dihydro-9bH-indeno[1,2-b]benzofuran-9b-yl)-2-oxo propanamide]",> 10 µg/mL,< 10 µg/mL,< 1 µg/mL,> 10 µg/mL,< 1 µg/mL,> 10 µg/mL,< 10 µg/mL,> 10 µg/mL
"Cc1cccc(C)c1NC(=O)C(=O)NC12C(=O)c3ccccc3C1(O)Oc1cc(C(C)C)ccc12 (centres unmarked) [Example 20, N1-(2,6-dimethylphenyl)-N2-(4b-hydroxy-7-isopropyl-10-oxo-4b, 10-dihydro-9bH-indeno[1,2-b]benzofuran-9b-yl)oxal amide]",> 10 µg/mL,< 10 µg/mL,< 0.1 µg/mL,> 10 µg/mL,< 0.1 µg/mL,> 10 µg/mL,< 10 µg/mL,> 10 µg/mL
"CC(C)c1ccc2c(c1)OC1(O)c3ccccc3C(=O)C21NC(=O)C(=O)N(C)C (centres unmarked) [Example 21, N1-(4b-hydroxy-7-isopropyl-10-oxo-4b, 10-dihydro-9bH-indeno[1,2-b]benzofuran-9b-yl)-N2, N2-dimethyl oxal amide]",> 10 µg/mL,< 10 µg/mL,< 0.1 µg/mL,> 10 µg/mL,< 0.1 µg/mL,> 10 µg/mL,< 1 µg/mL,> 10 µg/mL
"CC(=O)C(=O)NC12C(=O)c3c(N)cccc3C1(O)Oc1cc(C(C)C)ccc12 (centres unmarked) [Example 22, N-(1-amino-4b-hydroxy-7-isopropyl-10-oxo-4b, 10-dihydro-9bH-indeno[1,2-b]benzofuran-9b-yl)-2-oxo propanamide]",8.5 µg/mL,< 0.1 µg/mL,< 0.01 µg/mL,< 10 µg/mL,< 0.01 µg/mL,> 10 µg/mL,< 0.01 µg/mL,> 10 µg/mL
"COc1cc(C(=O)C(=O)NC23C(=O)c4ccccc4C2(O)Oc2cc(C(C)C)ccc23)cc(OC)c1OC (centres unmarked) [Example 23, N-(4b-hydroxy-7-isopropyl-10-oxo-4b, 10-dihydro-9bH-indeno[1,2-b]benzofuran-9b-yl)-2-oxo-2-(3,4,5-trimethoxyphenyl)acetamide]",> 10 µg/mL,< 10 µg/mL,< 0.1 µg/mL,> 10 µg/mL,< 0.1 µg/mL,> 10 µg/mL,< 10 µg/mL,> 10 µg/mL
"COc1ccc(/C=C/C(=O)C(=O)NC23C(=O)c4ccccc4C2(O)Oc2cc(C(C)C)ccc23)cc1OC (centres unmarked) [Example 24, (E)-4-(3,4-dimethoxyphenyl)-N-(4b-hydroxy-7-isopropyl-10-oxo-4b, 10-dihydro-9bH-indeno[1,2-b]benzofuran-9b-yl)-2-oxobut-3-enamide]",> 10 µg/mL,< 10 µg/mL,< 0.1 µg/mL,> 10 µg/mL,< 0.1 µg/mL,> 10 µg/mL,< 10 µg/mL,> 10 µg/mL
"Cc1cccc(C)c1NC(=O)C(=O)NC12C(=O)c3cccc([N+](=O)[O-])c3C1(O)Oc1cc(C(C)C)ccc12 (centres unmarked) [Example 26, N1-(2,6-dimethylphenyl)-N2-(4b-hydroxy-7-isopropyl-4-nitro-10-oxo-4b, 10-dihydro-9bH-indeno[1,2-b]benzofuran-9b-yl)oxal amide]",> 10 µg/mL,> 10 µg/mL,< 10 µg/mL,> 10 µg/mL,< 10 µg/mL,> 10 µg/mL,< 10 µg/mL,> 10 µg/mL
"CNC(=O)C(=O)NC12C(=O)c3ccccc3C1(O)Oc1cc(C(C)C)ccc12 (centres unmarked) [Example 27, N1-(4b-hydroxy-7-isopropyl-10-oxo-4b, 10-dihydro-9bH-indeno[1,2-b]benzofuran-9b-yl)-N2-methyl oxal amide]",> 10 µg/mL,< 10 µg/mL,< 0.1 µg/mL,> 10 µg/mL,< 0.1 µg/mL,> 10 µg/mL,< 1 µg/mL,> 10 µg/mL
"CCC(C)C(=O)C(=O)NC12C(=O)c3cccc([N+](=O)[O-])c3C1(O)Oc1cc(C(C)C)ccc12 (centres unmarked) [Example 28, N-(4b-hydroxy-7-isopropyl-4-nitro-10-oxo-4b, 10-dihydro-9bH-indeno[1,2-b]benzofuran-9b-yl)-3 methyl-2-oxo pentanamide]",> 10 µg/mL,> 10 µg/mL,< 10 µg/mL,> 10 µg/mL,< 1 µg/mL,> 10 µg/mL,< 10 µg/mL,> 10 µg/mL
"CCC(C)C(=O)C(=O)NC12C(=O)c3ccccc3C1(O)Oc1cc(C(C)C)ccc12 (centres unmarked) [Example 29, N-(4b-hydroxy-7-isopryl-10-oxo-4b, 10-dihydro-9bH-indeno[1,2-b]benzofuran-9b-yl)-3-methyl-2-oxo pentanamide]",> 10 µg/mL,< 1 µg/mL,< 0.1 µg/mL,> 10 µg/mL,< 0.1 µg/mL,> 10 µg/mL,< 1 µg/mL,> 10 µg/mL
"CC(C)c1ccc2c(c1)OC1(O)c3c(cccc3[N+](=O)[O-])C(=O)C21NC(=O)C(=O)N(C)C (centres unmarked) [Example 30, N1-(4b-hydroxy-7-isopropyl-4-nitro-10-oxo-4b, 10-dihydro-9bH-indeno[1,2-b]benzofuran-9b-yl)-N2-N2-dimethyl oxal amide]",> 10 µg/mL,> 10 µg/mL,< 10 µg/mL,> 10 µg/mL,< 10 µg/mL,> 10 µg/mL,> 10 µg/mL,> 10 µg/mL
"CC(C)c1ccc2c(c1)OC1(O)c3cccc(N)c3C(=O)C21NC(=O)C(=O)N(C)C (centres unmarked) [Example 31, N1-(1-amino-4b-hydroxy-7-isopropyl-10-oxo-4b, 10-dihydro-9bH-indeno[1,2-b]benzofuran-9b-yl)-N2, N2-dimethyl oxal amide]",73 µg/mL,< 0.1 µg/mL,< 0.01 µg/mL,< 10 µg/mL,< 0.01 µg/mL,> 10 µg/mL,0.012 µg/mL,> 10 µg/mL
"CCOC(=O)C(=O)NC12C(=O)c3ccccc3C1(O)Oc1cc(C(C)C)ccc12 (centres unmarked) [Example 32, Ethyl 2-((4b-hydroxy-7-isopropyl-10-oxo-4b, 10-dihydro-9bH-indeno[1,2-b]benzofuran-9b-yl)amino)-2-oxo acetate]",> 10 µg/mL,< 10 µg/mL,< 1 µg/mL,> 10 µg/mL,< 0.1 µg/mL,> 10 µg/mL,< 1 µg/mL,> 10 µg/mL
"CCOC(=O)C(=O)NC12C(=O)c3cccc([N+](=O)[O-])c3C1(O)Oc1cc(C(C)C)ccc12 (centres unmarked) [Example 33, Ethyl 2-((4b-hydroxy-7-isopropyl-4-nitro-10-oxo-4b, 10-dihydro-9bH-indeno[1,2-b]benzofuran-9b-yl)amino)-2-oxo acetate]",> 10 µg/mL,> 10 µg/mL,< 10 µg/mL,> 10 µg/mL,< 10 µg/mL,> 10 µg/mL,> 10 µg/mL,> 10 µg/mL
"CCCC(=O)C(=O)NC12C(=O)c3cccc([N+](=O)[O-])c3C1(O)Oc1cc(C(C)C)ccc12 (centres unmarked) [Example 34, N-(4b-hydroxy-7-isopropyl-4-nitro-10-oxo-4b, 10-dihydro-9bH-indeno[1,2-b]benzofuran-9b-yl)-2-oxo pentanamide]",> 10 µg/mL,< 10 µg/mL,< 10 µg/mL,> 10 µg/mL,< 1 µg/mL,> 10 µg/mL,< 10 µg/mL,> 10 µg/mL
"CCCCCCC(=O)C(=O)NC12C(=O)c3cccc([N+](=O)[O-])c3C1(O)Oc1cc(C(C)C)ccc12 (centres unmarked) [Example 35, N-(4b-hydroxy-7-isopropyl-4-nitro-10-oxo-4b, 10-dihydro-9bH-indeno[1,2-b]benzofuran-9b-yl)-2-oxo octanamide]",> 10 µg/mL,< 10 µg/mL,< 1 µg/mL,> 10 µg/mL,< 1 µg/mL,> 10 µg/mL,< 10 µg/mL,> 10 µg/mL
"CCOC(=O)C(=O)NC12C(=O)c3c(N)cccc3C1(O)Oc1cc(C(C)C)ccc12 (centres unmarked) [Example 36, Ethyl 2-((1-amino-4b-hydroxy-7-isopropyl-10-oxo-4b, 10-dihydro-9bH-indeno[1,2-b]benzofuran-9b-yl)amino)-2-oxo acetate]",> 10 µg/mL,< 10 µg/mL,< 0.1 µg/mL,> 10 µg/mL,< 0.1 µg/mL,> 10 µg/mL,< 1 µg/mL,> 10 µg/mL
"CC(C)c1ccc2c(c1)OC1(O)c3ccccc3C(=O)C21NC(=O)C(=O)C(C)(C)C (centres unmarked) [Example 37, N-(4b-hydroxy-7-isopropyl-10-oxo-4b, 10-dihydro-9bH-indeno[1,2-b]benzofuran-9b-yl)-3,3-dimethyl-2-oxo butanamide]",> 10 µg/mL,< 10 µg/mL,< 0.1 µg/mL,> 10 µg/mL,< 0.1 µg/mL,> 10 µg/mL,< 0.1 µg/mL,> 10 µg/mL
